This is an account of results in patent US10550115B2, “1, 4, 8-triazaphenanthrene derivatives for the treatment of neurodegenerative disorders” (Institut Du Cerveau et de la Moëlle Epiniere, priority 2015, dated 2020).

SMILES strings stand for the structures.

For data set [1], the system named is dopaminergic (TH+) neurons derived from primary cultures of embryonic ventral mesencephalon. Description: Spontaneous degeneration of dopaminergic neurons in primary cultures of embryonic ventral mesencephalon, TH+ neuron count at DIV 10. Type of data set: cell-based. The following applies: for viability at 0.1 µM / viability at 1 µM / viability at 10 µM: Neuron, 240 h, read-out: TH+ neurons, % relative to the control ± standard error; for Neuroprotective activity, in words: survival percentage at 10 μM almost equal to that induced by db-cAMP at 1 mM. Here is the method:
The compounds of the invention were tested in a model of spontaneous degeneration of dopaminergic neurons derived from primary cultures of embryonic ventral mesencephalon according to the protocol described in the article by S. Guerreiro et a1. (2008). The primary cultures of embryonic ventral mesencephalon thus obtained are mixed cultures containing about 50% neuronal cells and 50% glial cells. Among the neuronal cells, dopaminergic neurons make up 3% of the total neurons, most of the neurons derived from these cultures being GABAergic. Concerning the glial cells, they mainly consist of astrocytes (>95% of the glial cells). These cultures are characterized by spontaneous, progressive and selective death of dopaminergic neurons as a result of a mechanism involving immature astrocytes and calcium dyshomeostasis (E. Rousseau et a1. (2013), D. Toulorge et a1. (2011)). The neuroprotective effect of the compounds of the invention was evaluated by counting dopaminergic (TH^+) neurons stained by tyrosine hydroxylase (TH) immunohistochemistry after 10 days of culture (DIV 10).

The test system of data set [2] is dopaminergic neurons of the substantia nigra. Kind of data set: MPTP mouse model of Parkinson's disease: survival of TH+ dopaminergic neurons in the substantia nigra. The settings on record: MPTP/Iac mice. Type of data set: in vivo. The method, then:
(§1) The potential neuroprotective effects of Iac were evaluated by measuring striatum dopamine levels and dopamine turnover in the mouse model of Parkinson's disease treated with MPTP (1-methyl-4-phenyl-1,2,3,6-tetrahydropyridine), and by evaluating the number of dopaminergic neurons saved in the substantia nigra. Mice were treated with Iac (50 and 100 mg/kg, p.o., in 1% carboxymethyl cellulose and 0.5% Tween 80) for 11 consecutive days. MPTP (20 mg/kg; intraperitoneal route), or saline solution for the controls, was administered on treatment days 4 to 8. All mice were killed on day 12 following final administration of the treatment, then the striatal tissue was dissected for analysis. The effect of MPTP treatment on striatum dopamine depletion was analysed by high-pressure liquid chromatography (HPLC) in combination with electrochemical detection for measurement of levels of dopamine monoamine (DA), 3,4-dihydroxyphenylacetic acid (DOPAC), and homovanillic acid (HVA).
At the dose of 2×25 mg/kg/d (par os), the near-total survival of TH^+ neurons was observed. Indeed, in the group of mice treated with MPTP/Iac, survival was measured at 93±4% relative to the controls.

In data set [3] the test system is mouse model of Parkinson's disease treated with MPTP. Kind of data set: MPTP mouse model of Parkinson's disease: striatum dopamine levels and dopamine turnover (HPLC, electrochemical detection). It is filed as in vivo. The following applies: MPTP mice. The method, then: as §1
Data set [4] can be described thus: In vivo study of BBB crossing, HPLC-MS/MS of plasma and brain after IV injection. More on the design: species or system CD-1 mice. The method, then:
The goal of this study is to confirm, by HPLC coupled to mass spectrometry, the presence of compound Iac in the brain parenchyma after sub-chronic intravenous treatment in mice.
The study is performed with CD-1 mice.
A 0.5 mg/mL solution of compound Iac is prepared in physiological saline containing 10% Cremophor EL®. The same dose of this solution is administered intravenously to 6 mice (2 μL/g).
After 5 min, 3 mice are sacrificed. After 30 min, the other 3 mice are sacrificed.
Blood is drawn, and the plasma is separated by centrifugation. The brain is harvested after intracardiac perfusion. The samples are frozen and stored at −80° C. before treatment.
Plasma: 400 μL of each plasma sample is mixed with 1 mL of acetonitrile to precipitate proteins and extract compound Iac.
Brain: Each brain is ground in 400 μL of physiological saline. 800 μL of acetonitrile is added in order to extract compound Iac.
The treated samples are vortexed for 3 minutes and then placed in a sonicator again for 3 minutes. The precipitated proteins and the solid residues are sedimented by centrifugation (15,000 g, 5 minutes at 4° C.). The supernatants are transferred to a microplate to be analysed by HPLC-MS/MS.
Samples are analysed with the method described below, with detection and quantification, based on peak area, being performed by HPLC-MS/MS in MRM mode.
For the calculation of log [brain]/[plasma] to determine blood-brain barrier crossing, the mean plasma volume of a mouse is evaluated at 1.5 mL.

Data set [5] is described as follows: Aqueous solubility. It is filed as physicochemical. The following applies: aqueous medium (not further specified).
Setting [6] is: 50 mg/kg p.o., 11 consecutive days.
The mark [7] stands for this setting: 100 mg/kg p.o., 11 consecutive days.

Consider `c1cnc2ccc3nccnc3c2c1` [Iaa], for which, in data set [1], the viability at 0.1 µM amounted to 25.7 ± 1.6%, the viability at 1 µM is 26.2 ± 1.7% and the viability at 10 µM came to 30.6 ± 2.3%.

Turning to `c1ccc(-c2cnc3ccc4ncccc4c3n2)cc1` [Iac, 3-phenyl-1,4,8-triazaphenanthrene], the “Survival of TH+ neurons relative to the controls” value in data set [2] (2×25 mg/kg/d per os) turned out to be 93±4%. In addition, the “Dopaminergic neuron survival relative to the controls” value in data set [2] (2×50 mg/kg/d per os) was 81±4%. In data set [3] (setting [6]), the “Decrease in the (DOPAC+HVA)/DA ratio” value was 30% and the “Increase of striatum DA levels” value is 64%. Moreover, in data set [3] (setting [7]), the “Decrease in the (DOPAC+HVA)/DA ratio” value came out at 28%, the “Increase of striatum DA levels” value was found to be 78% and the “Increase of striatum HVA levels” value is reported as 25%. Moreover, the “Effect on DOPAC levels” value in data set [3] (50 and 100 mg/kg p.o.) is on record as “no significant effect”. In data set [1], the viability at 0.1 µM amounted to 46.6 ± 2.8%; the viability at 1 µM was 64.7 ± 2.9%; the viability at 10 µM came to 91 ± 3.7%; the “Neuroprotective activity, in words” value was “particularly high activity”. Further, in data set [1] (in vitro), the “Activity (concentration showing neuroprotective activity in vitro)” value was found to be 1 µM and the “Concentration for optimal neuroprotective activity” value amounted to 10 µM. Moreover, the “Amount (nmol/brain)” value in data set [4] (5 min after IV injection of 1 mg/kg, mice) is given as 5.19 ± 0.25 nmol/brain. The “Amount (nmol/brain)” value in data set [4] (30 min after IV injection of 1 mg/kg, mice) came to 0.50 ± 0.07 nmol/brain. For the same compound, the Kp at 5 min in data set [4] (CD-1, brain and plasma, 5 min after IV injection of 1 mg/kg, mean plasma volume of a mouse evaluated at 1.5 mL, read-out: Log [brain]/[plasma]) was determined as 0.15 ± 0.05. Further, in data set [4] (CD-1, brain and plasma, 30 min after IV injection of 1 mg/kg, mean plasma volume of a mouse evaluated at 1.5 mL, read-out: Log [brain]/[plasma]), the Kp at 30 min is 0.02 ± 0.1. Moreover, in data set [4] (CD-1, mouse, plasma, 5 min after IV injection of 1 mg/kg, mice), the concentration at 5 min stood at 2470 ± 240 nM. For the same compound, the concentration at 30 min in data set [4] (CD-1, mouse, plasma, 30 min after IV injection of 1 mg/kg, mice) stood at 320 ± 50 nM. For the same compound, the “Blood-brain barrier crossing in vivo, in words” value in data set [4] (after intravenous administration) is given as “able to cross the BBB”. In data set [5], this compound gave a solubility of under 10 µg/mL.

Take `Clc1cnc2ccc3ncccc3c2n1` [Iad]: in data set [1], the viability at 0.1 µM came out at 27.4 ± 1.6%, the viability at 1 µM was determined as 26.5 ± 1.6% and the viability at 10 µM is 33.8 ± 1.8%.

For `Oc1cccc(-c2cnc3ccc4ncccc4c3n2)c1` [Iae], in data set [1], the viability at 0.1 µM was 24.7 ± 1.6%; the viability at 1 µM came to 47.7 ± 2.6%; the viability at 10 µM was determined as 99.3 ± 4.4%; the “Neuroprotective activity, in words” value is on record as “particularly high activity”.

Regarding `COc1cc(-c2cnc3ccc4ncccc4c3n2)cc(OC)c1OC` [Iaf], in data set [1], the viability at 0.1 µM came to 27.7 ± 1.6%, the viability at 1 µM came out at 46.8 ± 2.3% and the viability at 10 µM worked out at 70.8 ± 3.5%.

On to `c1cncc(-c2cnc3ccc4ncccc4c3n2)c1` [Iag], for which, in data set [1], the viability at 0.1 µM was 31.4 ± 1.7%; the viability at 1 µM turned out to be 48.3 ± 2.4%; the viability at 10 µM was found to be 96.6 ± 4.5%; the “Neuroprotective activity, in words” value is recorded as “particularly high activity”.

Take `Fc1ccc(-c2cnc3ccc4ncccc4c3n2)cc1` [Iah]: in data set [1], the viability at 0.1 µM amounted to 24.4 ± 1.4%, the viability at 1 µM is 32.8 ± 1.8% and the viability at 10 µM is 42.8 ± 2.2%.

For the compound `c1ccc2cc(-c3cnc4ccc5ncccc5c4n3)ccc2c1` [Iaj], in data set [1], the viability at 0.1 µM came out at 28.9 ± 1.8%; the viability at 1 µM was 42.8 ± 2.1%; the viability at 10 µM worked out at 94.9 ± 3.5%; the “Neuroprotective activity, in words” value is reported as “particularly high activity”.

Consider `C#Cc1cnc2ccc3ncccc3c2n1` [Iak], for which, in data set [1], the viability at 0.1 µM worked out at 38.2 ± 2.1%, the viability at 1 µM was determined as 40.7 ± 2.6% and the viability at 10 µM amounted to 7 ± 1.3%.

As to `c1ccc2ncc(-c3cnc4ccc5ncccc5c4n3)cc2c1` [Iam], in data set [1], the viability at 0.1 µM came out at 27.6 ± 2%; the viability at 1 µM is 46.7 ± 2.7%; the viability at 10 µM is 97.3 ± 3.6%; the “Neuroprotective activity, in words” value is “particularly high activity”.

For the compound `Cc1nc2ccc3ncccc3c2nc1-c1ccc2ccccc2c1` [Ibj], in data set [1], the viability at 0.1 µM stood at 58.1 ± 2.8%, the viability at 1 µM was determined as 59.2 ± 2.2% and the viability at 10 µM is 67.3 ± 2.5%.

A word on the solubility: it is the concentration that dissolves in the medium under given conditions.
